Here are results for two compounds from patent US4254285A, “1-Hydroxymethyl-1-1-oxo prostane derivatives of the E and F series” (American Cyanamid Company, priority 1979, dated 1981).

Where two headings read alike, the source gives them in different places.

The format of experiment [1] is in vivo, rat. The protocol: (§1) Male Wistar rats (Royal Hart, New Hampton, N.Y.), weighing 190-210 g are distributed among control and treatment groups (5 rats/group) and housed one rat per cage. During the 52 hour test period, the rats are permitted free access to food and drinking water for the first 33 hours but are fasted overnight prior to sacrifice. Indomethacin is suspended (4 mg/ml) in a 1.5% starch-phosphate buffer solution (SPBS). 1,9-dioxo-11α,16-dihydroxy-16-methyl-1-hydroxymethyl-13-transprostene is dissolved at 10 mg/ml in ethanol and then diluted in SPBS to 0.1 mg/ml or to a lower concentration as required. The indomethacin suspension is injected subcutaneously (10 mg/kg) and the prostaglandin suspension is given by gavage (0.5 mg/kg or less) b.i.d. on day 0 and 1. Rats receive only one dose of prostaglandin and indomethacin on day 2 and 6 hours later are killed with chloroform. The stomachs are dissected, opened along the greater curvature, and rinsed briefly in tap water. They are then spread, mucosal surface facing upward and pinned onto uniform size corks (2.5 inch diameter) individually numbered on the back. The identification number for each stomach is unknown to the investigator and the stomachs are randomly graded according to the following scheme:
(§2) ^a Treatment is B.I.D. on days 0 and 1, and once on day 2, six hours
(§3) prior to sacrifice for scoring.

For experiment [2], the system named is indomethacin-induced intestinal ulcers. In kind it is in vivo, rat. Here is the method: as §1
Intestines are also removed and examined for the presence of ulcers, which are graded according to the scheme outlined below.
1--Mucosa thin, petechial hemorrhage
2--"Blow-outs", when intestine inflated with air
3--Few ulcers. Gut more fragile than normal, tears along line of mesentery attachements when removed
4--Many large perforating lesions. Adhesions. Gut hemorrhagic and very fragile. Tears readily and cannot be removed intact. Graded in situ.
as §2, §3

For experiment [3], the system named is indomethacin-induced gastric ulcers. In kind it is in vivo, rat. Here is the method:
as §1
1--Petechial hemorrhage, or pin-point ulcers
2--One or two small ulcers or hemorrhagic erosions
3--Many areas of hemorrhage erosion or ulcers, a few large
4--Massive areas of hemorrhagic erosion or many ulcers, mainly large
as §2, §3

The test system of another experiment is gastric secretion. Briefly: Gastric anti-secretory test, Heidenhain pouch, histamine-stimulated. In kind it is in vivo, dog. As to conditions: oral 100 mg/Kg. Here is the method: Unanesthetized mongrel dogs weighing 10-15 Kg are used. The animals have a surgically prepared denervated (Heidenhain) pouch which drains by gravity through a titanium cannula. These animals are trained to stand quietly in a Pavlov support. Gastric secretion is stimulated at the lowest rate giving stable secretion (25-40% of maximal) with histamine acid phosphate, 30-50 μg/Kg/hr. Under such stimulation, a stable gastric secretory output can generally be maintained for a period of at least 3 hours.
Gastric juice is collected continuously during secretory studies and pooled into 15-minute collections. Determination of collection volume, pH and titratable acidity is performed. Acid is determined by titrating an aliquot of gastric sample with 0.1 N NaOH to pH 7.0 using an automatic titrator.
Drugs are administered on a background of submaximal gastric secretory stimulation and the results compared with control secretory studies without the use of drug. Depending upon the duration of action of a particular drug, it may be possible for a single drug-secretory study to serve as its own control. The route of drug administration is oral administration into the main stomach.
For example, one of the PGE compounds of this invention 1,9-dioxo-11α,16-dihydroxy-16-methyl-1-hydroxymethyl-5-trans prostadiene on administration into the stomach of one of these dogs at a dose of […] gives the results shown hereinbelow in Table D. The data in Table D is the average of four tests in one dog.

Setting [4] is: .02 mg/kg P.O. with indomethacin 10 mg/kg subcut.
Setting [5] is: .1 mg/kg P.O. with indomethacin 10 mg/kg subcut.
Setting [6] is: .5 mg/kg P.O. with indomethacin 10 mg/kg subcut.
[7] abbreviates: 0 min., average of four tests in one dog.

With `CCCCC(C)(O)CC=CC1C(O)CC(=O)C1CCCCCCC(=O)CO` (stereo not drawn), the figures for the “Hematocrit (Mean ± S.E.M.)” value in experiment [1] (setting [4]), in experiment [1] (setting [5]) and in experiment [1] (setting [6]) were 35.6 ± 1.9, 41.1 ± 2.4 and 40.0 ± 1.4, respectively. Further, the “Intestinal Ulcer Score (Mean ± S.E.M.)” value in experiment [2] (setting [4]) is given as 3.5 ± 0.2; in experiment [2] (setting [5]), 2.7 ± 0.2; in experiment [2] (setting [6]) it was 2.0 ± 0.4. Also, the “Gastric Ulcer Score (Mean ± S.E.M.)” value in experiment [3] (setting [4]) stood at 1.9 ± 0.4; in experiment [3] (setting [5]), 1.7 ± 0.3; in experiment [3] (setting [6]) it was 2.1 ± 0.4.
Consider `CCCCC(C)(O)CC=CC1C(O)CC(=O)C1CC=CCCCC(=O)CO` (stereo not drawn) [1,9-dioxo-11α,16-dihydroxy-16-methyl-1-hydroxymethyl-5-cis-13-trans-prostadiene], for which the Acid stood at 0.43 meg/15 min in the experiment with gastric secretion (setting [7]); 0.35 meg/15 min in the experiment on gastric secretion (15 min.); 0.22 meg/15 min in the experiment on gastric secretion (30 min.); 0.20 meg/15 min with gastric secretion (45 min.); 0.09 meg/15 min in the experiment with gastric secretion (60 min.); 0.13 meg/15 min with gastric secretion (75 min.). The values for the Acid in the experiment with gastric secretion (90 min.), with gastric secretion (105 min.) and in the experiment with gastric secretion (120 min.) were 0.21 meg/15 min, 0.27 meg/15 min and 0.40 meg/15 min, respectively. In addition, the “Volume of gastric juice” value is 3.4 mL with gastric secretion (setting [7]); 2.6 mL in the experiment with gastric secretion (15 min.); 1.5 mL with gastric secretion (30 min.); 1.3 mL with gastric secretion (45 min.); 0.7 mL with gastric secretion (60 min.); 0.9 mL in the experiment on gastric secretion (75 min.). For the same compound, the “Volume of gastric juice” value with gastric secretion (90 min.) was 1.5 mL; with gastric secretion (105 min.), 1.9 mL; with gastric secretion (120 min.), 2.7 mL.
